{"source": "paper PMC3537892", "about": "(Clinical cancer research : an official journal of the …, 2012)", "test_system": "RENCA renal cancer cells grafted in the renal capsule", "assay": "Orthotopic RENCA renal cancer allograft", "format": "in vivo, BALB/c mice", "conditions": "three i.v. injections in fourth week after grafting; p < 0.003", "data": [{"smiles": "CC(=O)O[C@H]1C(=O)[C@@]2(C)[C@H]([C@H](OC(=O)c3ccccc3)[C@]3(O)C[C@H](OC(=O)[C@H](O)[C@@H](NC(=O)c4ccccc4)c4ccccc4)C(C)=C1C3(C)C)[C@]1(OC(C)=O)CO[C@@H]1C[C@@H]2O", "note": "[PTX, paclitaxel]", "values": [{"measurement": "tumor volume compared to vehicle control", "value": "significantly decreased tumor volume"}]}]}
